ChEMBL document CHEMBL5331140, “Discovery of IACS-52825, a Potent and Selective DLK Inhibitor for Treatment of Chemotherapy-Induced Peripheral Neuropathy” (J Med Chem, 2023)
Calls of active or inactive are those of the source.

Legend:
[1] = Binding affinity to full length human DLK (1 to 859 residues)/NFkappaB DNA binding domain (unknown origin) fusion protein transfected in HEK293 cells assessed as dissociation constant incubated for 1 hr by Kinomescan assay; assay type: cell-based
[2] = Metabolic stability in human liver microsomes assessed as intrinsic clearance at 1 uM in presence of NADPH regenerating system measured for 45 mins by LC-MS/MS analysis; assay type: ADME, Microsome; conditions: read-out: CLH
[3] = Metabolic stability in rat liver microsomes assessed as intrinsic clearance at 1 uM in presence of NADPH regenerating system measured for 45 mins by LC-MS/MS analysis; assay type: ADME, Microsome; conditions: read-out: CLH
[4] = Metabolic stability in mouse liver microsomes assessed as intrinsic clearance at 1 uM in presence of NADPH regenerating system measured for 45 mins by LC-MS/MS analysis; assay type: ADME, Microsome; conditions: read-out: CLH
[5] = Half life in cynomolgus monkey at 1 mg/kg, po or 0.3 mg/kg, iv measured for 24 hrs by LC-MS/MS analysis; assay type: ADME, organism-based, Macaca fascicularis; conditions: in vivo
[6] = Half life in Sprague-Dawley rat at 3 mg/kg, po or 0.3 mg/kg, iv measured for 24 hrs by LC-MS/MS analysis; assay type: ADME, organism-based; conditions: in vivo
[7] = target: Voltage-gated inwardly rectifying potassium channel KCNH2 (Homo sapiens, UniProt Q12809)
Sequence of Voltage-gated inwardly rectifying potassium channel KCNH2 (Q12809 whole entry): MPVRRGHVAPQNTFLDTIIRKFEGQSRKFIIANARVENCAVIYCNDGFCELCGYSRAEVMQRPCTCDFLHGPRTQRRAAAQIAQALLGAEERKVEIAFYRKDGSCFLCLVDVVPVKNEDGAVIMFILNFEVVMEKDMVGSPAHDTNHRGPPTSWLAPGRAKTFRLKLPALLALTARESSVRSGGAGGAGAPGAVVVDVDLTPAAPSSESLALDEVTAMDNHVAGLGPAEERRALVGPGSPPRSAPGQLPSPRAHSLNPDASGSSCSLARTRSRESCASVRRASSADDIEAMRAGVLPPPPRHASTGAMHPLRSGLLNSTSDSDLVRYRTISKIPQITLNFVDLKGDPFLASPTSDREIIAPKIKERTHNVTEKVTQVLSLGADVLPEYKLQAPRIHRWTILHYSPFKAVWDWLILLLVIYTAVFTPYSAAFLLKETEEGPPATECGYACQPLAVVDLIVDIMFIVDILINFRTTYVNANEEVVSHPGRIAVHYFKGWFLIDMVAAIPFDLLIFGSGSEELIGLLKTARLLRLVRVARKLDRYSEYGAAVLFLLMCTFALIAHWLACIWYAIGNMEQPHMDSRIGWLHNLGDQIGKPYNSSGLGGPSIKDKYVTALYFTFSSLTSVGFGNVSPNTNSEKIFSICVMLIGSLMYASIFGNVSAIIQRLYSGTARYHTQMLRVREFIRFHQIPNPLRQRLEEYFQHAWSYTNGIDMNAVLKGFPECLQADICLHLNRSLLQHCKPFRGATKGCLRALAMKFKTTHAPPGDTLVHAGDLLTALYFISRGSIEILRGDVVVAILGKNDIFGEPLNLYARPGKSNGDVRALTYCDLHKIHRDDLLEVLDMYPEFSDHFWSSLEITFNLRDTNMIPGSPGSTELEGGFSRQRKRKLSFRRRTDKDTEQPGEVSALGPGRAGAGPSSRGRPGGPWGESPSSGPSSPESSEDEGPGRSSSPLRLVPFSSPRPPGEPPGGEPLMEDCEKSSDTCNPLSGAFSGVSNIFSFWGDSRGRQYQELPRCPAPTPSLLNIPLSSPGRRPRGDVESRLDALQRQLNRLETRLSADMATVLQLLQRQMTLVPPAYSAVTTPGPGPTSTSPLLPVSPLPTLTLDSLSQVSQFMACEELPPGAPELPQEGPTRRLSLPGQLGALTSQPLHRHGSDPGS
Description: Inhibition of hERG expressed in CHO cells at -80 mV holding potential by QPatch automated electrophysiology assay

[8] = Oral bioavailability in Sprague-Dawley rat at 3 mg/kg administered via oral gavage and measured for 24 hrs by LC-MS/MS analysis; assay type: ADME, organism-based; conditions: in vivo
[9] = test system: Mus musculus; assay: Antiallodynic activity in cisplatin-induced mechanical allodynia C57BL/6 mouse model assessed as increase in paw withdrawal threshold at 30 mg/kg, po stimulated with cisplatin on day 1 to 5 and 10 to 15 followed by daily administration of compound from day 16 and measured for 35 days by von frey test; assay type: functional, organism-based; conditions: time 20.0 day
[10] = Oral bioavailability in cynomolgus monkey at 1 mg/kg administered via nasal gavage measured for 24 hrs by LC-MS/MS analysis; assay type: ADME, organism-based, Macaca fascicularis; conditions: in vivo
[11] = Oral bioavailability in Beagle dog at 1 mg/kg administered via oral gavage and measured for 24 hrs by LC-MS/MS analysis; assay type: ADME, organism-based, Canis lupus familiaris; conditions: in vivo
[12] = Ratio of unbound drug concentration in C57BL/6 mouse brain to plasma at 0.3 mg/kg, iv measured for 24 hrs by LC-MS/MS analysis; assay type: ADME, organism-based; conditions: brain and plasma, read-out: K(p,uu,brain)
[13] = Half life in Beagle dog at 1 mg/kg, po or 0.3 mg/kg, iv measured for 24 hrs by LC-MS/MS analysis; assay type: ADME, organism-based, Canis lupus familiaris; conditions: in vivo
[14] = target: T1, Dual specificity mitogen-activated protein kinase kinase 5 (Homo sapiens) (UniProt Q13163); assay: Inhibition of MEK5 (unknown origin) at 1 uM relative to control
T1 sequence (whole entry): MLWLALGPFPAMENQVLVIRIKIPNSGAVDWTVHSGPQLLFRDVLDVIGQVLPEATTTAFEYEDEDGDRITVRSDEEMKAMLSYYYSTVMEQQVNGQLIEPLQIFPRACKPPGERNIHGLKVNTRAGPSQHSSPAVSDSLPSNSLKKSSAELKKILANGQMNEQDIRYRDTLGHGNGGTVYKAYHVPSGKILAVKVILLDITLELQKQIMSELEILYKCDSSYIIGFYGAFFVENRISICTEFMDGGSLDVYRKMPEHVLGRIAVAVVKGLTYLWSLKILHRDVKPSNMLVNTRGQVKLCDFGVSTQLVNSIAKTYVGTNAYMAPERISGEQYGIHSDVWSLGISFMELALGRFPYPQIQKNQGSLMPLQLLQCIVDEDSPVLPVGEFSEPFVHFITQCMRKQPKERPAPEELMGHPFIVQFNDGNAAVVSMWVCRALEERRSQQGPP

[15] = Oral bioavailability in C57BL/6 mouse at 10 mg/kg administered via oral gavage and measured for 24 hrs by LC-MS/MS analysis; assay type: ADME, organism-based; conditions: in vivo; for bioavailability: C57BL/6, mouse
[16] = Half life in C57BL/6 mouse at 0.3 mg/kg, iv measured for 24 hrs by LC-MS/MS analysis; assay type: ADME, organism-based; conditions: in vivo
[17] = test system: Mus musculus; assay: Antiallodynic activity in cisplatin-induced mechanical allodynia C57BL/6 mouse model assessed as increase in paw withdrawal threshold at 30 mg/kg, po stimulated with cisplatin on day 1 to 5 and 10 to 15 followed by daily administration of compound from day 6 to 16 and measured for 30 days by von frey test; assay type: functional, organism-based; conditions: time 25.0 day
[18] = Toxicity in rat by GLP toxicity study; conditions: in vivo
[19] = target: T2, Mitogen-activated protein kinase kinase kinase 12 (Homo sapiens, UniProt Q12852); assay: Inhibition of doxycycline-inducible human DLK transfected in HEK293 cells assessed as reduction in c-Jun phosphorylation at Ser63 residue incubated for 5 hrs; assay type: cell-based
T2 sequence (Q12852 whole entry): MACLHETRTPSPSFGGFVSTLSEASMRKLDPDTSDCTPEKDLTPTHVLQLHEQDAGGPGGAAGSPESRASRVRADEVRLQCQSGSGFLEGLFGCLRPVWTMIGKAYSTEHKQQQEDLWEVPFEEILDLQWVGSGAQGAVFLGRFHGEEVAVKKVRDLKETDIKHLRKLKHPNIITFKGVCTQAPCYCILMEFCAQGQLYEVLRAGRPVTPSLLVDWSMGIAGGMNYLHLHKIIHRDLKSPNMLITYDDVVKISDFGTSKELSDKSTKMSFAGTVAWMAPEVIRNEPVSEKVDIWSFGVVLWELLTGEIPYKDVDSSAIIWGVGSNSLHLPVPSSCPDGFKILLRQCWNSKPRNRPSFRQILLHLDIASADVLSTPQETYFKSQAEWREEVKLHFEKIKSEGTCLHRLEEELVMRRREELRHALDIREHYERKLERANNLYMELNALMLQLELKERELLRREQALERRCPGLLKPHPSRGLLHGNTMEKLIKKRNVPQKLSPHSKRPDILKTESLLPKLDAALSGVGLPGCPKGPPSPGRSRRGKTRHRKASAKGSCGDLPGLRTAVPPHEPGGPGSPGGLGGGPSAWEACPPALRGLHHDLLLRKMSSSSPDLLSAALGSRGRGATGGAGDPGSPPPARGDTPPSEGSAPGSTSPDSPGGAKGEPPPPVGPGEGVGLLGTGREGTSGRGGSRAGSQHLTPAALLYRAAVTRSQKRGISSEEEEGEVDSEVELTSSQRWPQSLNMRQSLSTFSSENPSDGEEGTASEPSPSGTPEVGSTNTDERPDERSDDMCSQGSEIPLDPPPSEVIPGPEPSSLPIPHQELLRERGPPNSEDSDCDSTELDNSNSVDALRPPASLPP

[20] = Volume of distribution at steady state in C57BL/6 mouse at 0.3 mg/kg, iv administered via tail vein and measured for 24 hrs by LC-MS/MS analysis; assay type: ADME, organism-based; conditions: in vivo, read-out: Vdss
[21] = Half life in C57BL/6 mouse at 0.3 mg/kg, iv administered via tail vein and measured for 24 hrs by LC-MS/MS analysis; assay type: ADME, organism-based; conditions: in vivo
[22] = Cmax in C57BL/6 mouse at 10 mg/kg administered via oral gavage and measured for 24 hrs by LC-MS/MS analysis; assay type: ADME, organism-based; parameters: dose 10 mg/kg, time 24 hrs, route po; conditions: in vivo
[23] = AUClast in C57BL/6 mouse at 10 mg/kg administered via oral gavage and measured for 24 hrs by LC-MS/MS analysis; assay type: ADME, organism-based; parameters: time 24 hrs, dose 10 mg/kg, route po; conditions: in vivo

| Compound | Kd [1] [nM] | CLint scaled at 1 µM [2] [mL/min/kg] | CLint scaled at 1 µM [3] [mL/min/kg] | CLint scaled at 1 µM [4] [mL/min/kg] | Kp uu at 24 h [12] | other results |
| --- | --- | --- | --- | --- | --- | --- |
| CC(C)c1nc(-c2cnc(N)c(C(F)(F)F)c2)cn1C12CC(C1)C2 | 49 | 168 | 69 | 199 | – | – |
| CC(C)Cc1nc(-c2cnc(N)c(C(F)(F)F)c2)cn1C12CC(N3CCOCC3)(C1)C2 | 6.1 | 9 | 11 | – | – | – |
| CC(C)c1nc(-c2cnc(N)c(C(F)(F)F)c2)cn1C1CC1 | 130 | – | – | – | – | – |
| CC(C)c1nc(-c2cnc(N)c(OC(F)(F)F)c2)cn1C12CC(N3CCOCC3)(C1)C2 | 14 | 9 | 6 | 9 | 0.6 | half-life [5]: 6.3 h; half-life [6]: 7 h; IC50 [7]: > 30000 nM; bioavailability [8]: > 100%; Activity [9]: Active; bioavailability [10]: 64%; bioavailability [11]: 80%; half-life [13]: 22.9 h; inhibition [14]: 16%; bioavailability [15]: > 100%; half-life [16]: 3.5 h; Activity [17]: Active; Activity [18]: Toxic |
| Nc1ncc(-c2cc([C@H]3[C@@H]4CN(C5COC5)C[C@@H]43)n(CC3CC3)n2)cc1C(F)(F)F | 13 | – | – | – | – | – |
| Nc1ncc(-c2cn([C@H]3[C@@H]4CN(C5COC5)C[C@@H]43)c(CC3CC3)n2)cc1C(F)(F)F | 63 | – | – | – | – | – |
| Nc1ncc(-c2cn(C34CC(N5CCOCC5)(C3)C4)c(C3CC3)n2)cc1C(F)(F)F | 13 | 5 | 10 | 16 | 0.34 | half-life [16]: 3.8 h |
| CC(C)c1nc(-c2cnc(N)c(C(F)(F)F)c2)cn1C12CC(N3CCOCC3)(C1)C2 | 12 | 7 | – | 6 | 0.14 | half-life [16]: 3.3 h |
| CC(C)(C)Cc1nc(-c2cnc(N)c(C(F)(F)F)c2)cn1C12CC(N3CCOCC3)(C1)C2 | 66 | 14 | 43 | – | – | – |
| Nc1ncc(-c2cn(C34CC(N5CCOCC5)(C3)C4)c(C3CC3)n2)cc1OC(F)(F)F | – | 2 | 12 | 12 | 0.73 | half-life [5]: 4.6 h; half-life [6]: 3.4 h; bioavailability [8]: > 100%; bioavailability [10]: 66%; bioavailability [11]: 77%; half-life [13]: 10.5 h; bioavailability [15]: > 100%; half-life [16]: 3.5 h |
| Nc1ncc(-c2cn(C34CC(N5CCOCC5)(C3)C4)c(CC3CC3)n2)cc1C(F)(F)F | – | 6 | 5 | – | – | – |
| CC(C)C(O)c1nc(-c2cnc(N)c(OC(F)(F)F)c2)cn1C12CC(C1)C2 (centres undefined) | 0.6 | 35 | 91 | – | – | – |
| CC(C)n1nc(-c2cnc(N)c(C(F)(F)F)c2)cc1C1CC1 | 110 | – | – | – | – | – |
| CC(C)c1nc(-c2cnc(N)c(C(F)(F)F)c2)cn1C1CCC1 | 66 | 233 | 133 | 789 | – | – |
| CC(C)c1nc(-c2cnc(N)c(C(F)(F)F)c2)cn1C1CCCC1 | 225 | 362 | 238 | 2670 | – | – |
| Nc1ncc(-c2cn(C34CC(C3)C4)c([C@@H](O)C(F)(F)F)n2)cc1OC(F)(F)F | 1.2 | 14 | 32 | 26 | 1.1 | IC50 [19]: 48 nM; Vd [20]: 4.6 L/kg; half-life [21]: 3.5 h; F ([15]; mouse, po, 10 mg/kg, 24 h): 51%; Cmax [22]: 2000 nM; AUClast [23]: 14.4 µM·h |
| CC(C)[C@H](O)c1nc(-c2cnc(N)c(OC(F)(F)F)c2)cn1C12CC(N3CCOCC3)(C1)C2 | 0.4 | 22 | 1 | 3 | 0.2 | – |
